Experimental data taken from patent US20150307841A1, “Composition for Promoting Differentiation and Proliferation of Neural Stem Cell and Neural Precursor Cell” (priority 2014, published 2015).

How the values were obtained:
Type in all cases: in vivo, rat
[1] = test system: memory-deficient model rats; test: Y-maze test in ibotenic acid-induced memory-deficient model rats
Source text: (§1) Ibotenic acid is a neurotoxin present in mushrooms and is known to cause powerful damage to neurons when directly injected into the brain of mice or rats. In particular, because senile plaques and neuronal cell death appear in the entorhinal cortex and hippocampus in early Alzheimer's disease patients (Ueki A et al. J Neurol Sci, 1994), memory-deficient model rats were generated by injecting ibotenic acid (IBO) into the entorhinal cortex. The surgical protocol followed Heo H et al.'s method (J Ethnopharmacol, 2009) with some modifications. In the model animals, the injection of ibotenic acid induces cell death not only in the entorhinal cortex but also in the CA and DG regions of the hippocampus and impairs hippocampus-related learning and memory abilities.
(§2) The 6-week-old rats were anesthetized with equithesin (350 mM pentobarbital sodium, 250 mM chloral hydrate, 85 mM MgSO4 and 40% propylene glycol in 10% ethanol, 2 mL/kg). To induce cell death in the dentate gyrus and hippocampus in addition to the entorhinal cortex, ibotenic acid (1.5 μL per animal, 1 mg/mL) was injected into the entorhinal cortex as follows. The rat was placed in a stereotaxic device (Stoelting Co., Wood Dale, Ill., USA) with the incisor bar 3.4 mm below the interaural line. The needle was positioned 10° right to the midsaggital plane. Then, ibotenic acid was injected at 3 locations into the entorhinal cortex and medial entorhinal cortex at a rate of 0.35 μL/min (first, AP: 8.4 mm, ML: 4.8 mm, DV: 4.6-4.8 mm; second, AP: 8.4 mm, ML: 4.8 mm, DV: 2.6-2.8 mm; third, AP: 8.8 mm, ML: 3.65 mm, DV: 4.8 mm). […]
The maze was made of black-colored acryl and was positioned at equal angles. […] Arm entry was recorded when the hind paws were completely placed in the arm. Consecutive entry into 3 arms in an alternative order was defined as successive entries on overlapping triplet sets, and alternation percentage was calculated as the ratio of actual to possible alternations (defined as the total number of arm entries minus 2), multiplied by 100. […]

[2] = test system: memory-deficient model rats; test: Passive avoidance test in memory-deficient model rats
Source text: as §1
The 6-week-old rats were anesthetized with equithesin (350 mM pentobarbital sodium, 250 mM chloral hydrate, 85 mM MgSO4 and 40% propylene glycol in 10% ethanol, 2 mL/kg). […]
The passive avoidance was carried out as described in Heo H et al. (J Ethnopharmacol, 2009), with the same number of animals per group as the Y-maze test. […] Exactly 24 hours after the acquisition trial, the rats were placed in the lighted chamber again and the latency time to enter the dark chamber was measured for 720 seconds (retention trial). […]

[3] = test system: memory-deficient model rats; test: Morris water maze test in memory-deficient model rats; conditions: Experimental Example 2
Source text: as §1
as §2, with “plane.” for “plane. Then, ibotenic acid was injected at 3 locations into the entorhinal cortex and medial entorhinal cortex at a rate of 0.35 μL/min (first, AP: 8.4 mm, ML: 4.8 mm, DV: 4.6-4.8 mm; second, AP: 8.4 mm, ML: 4.8 mm, DV: 2.6-2.8 mm; third, AP: 8.8 mm, ML: 3.65 mm, DV: 4.8 mm).”
For each trial, the rat was allowed to swim for a maximum of 60 seconds to find the platform and to rest for 1 minute on the platform upon success. […] The swimming time and length of the trial were recorded and monitored using a video camera. […] The captured video images were analyzed by a video tracking system (EthoVision Water Maze program, Noldus Information Technology, Wageningen, the Netherlands). The analyzed information included the swimming time in the target quadrant and the number of virtual platform crossings to find the removed platform. […]

[4] = 10 mg/kg oral, tests 2 weeks after administration (Experimental Example 2)

## C[C@@H]1O[C@@H](O[C@H]2[C@H](O[C@H]3[C@H](O[C@H]4CC[C@@]5(C)[C@@H](CC[C@]6(C)[C@@H]5CC=C5[C@@H]7CC(C)(C)C[C@@H](O)[C@]7(C)CC[C@]56C)[C@@]4(C)CO)O[C@H](C(=O)O)[C@@H](O)[C@@H]3O)O[C@H](CO)[C@H](O)[C@@H]2O)[C@H](O)[C@H](O)[C@H]1O [soyasaponin I]
[1]; [4]
  Y-maze number of total entries: not significantly different
[1]; Experimental Example 1, tests immediately after administration, group 1 (Soya-I)
  Y-maze spontaneous alterations (decreased memory of IBO group): improved
[1]; soyasaponin I 10 mg/kg oral, tests 2 weeks after administration (Experimental Example 2)
  Y-maze spontaneous alterations, increase compared with the non-soyasaponin I-administered group (IBO): 78.57%
[2]; [4]
  Passive avoidance latency time, relative to that of the normal group: 89.65%
[2]; Experimental Example 1, retention trial 24 hours after shock
  Passive avoidance latency time: improvement in latency time
[3]; probe trial session
  Morris water maze number of crossings across the target probe: recovery to almost those of the normal group
  Morris water maze swimming time in the target quadrant: recovery to almost those of the normal group
[3]; training trial, third and fourth days
  Morris water maze escape latency time compared to the ibotenic acid-administered group: decreased
